Data taken from ChEMBL document CHEMBL3882724 (2013).

Key:
[1] = Half life in human liver microsomes at 1 uM by LC-MS/MS analysis
[2] = target: T1, Steroid 17-alpha-hydroxylase/17,20 lyase (Homo sapiens, UniProt P05093); assay: Inhibition of CYP17 in human testicular microsomes using 17alpha-hydroxypregnenolone as substrate assessed as decrease in DHEA levels after 90 mins by ELISA; set-up: species or system Testis
T1 sequence (P05093 whole entry): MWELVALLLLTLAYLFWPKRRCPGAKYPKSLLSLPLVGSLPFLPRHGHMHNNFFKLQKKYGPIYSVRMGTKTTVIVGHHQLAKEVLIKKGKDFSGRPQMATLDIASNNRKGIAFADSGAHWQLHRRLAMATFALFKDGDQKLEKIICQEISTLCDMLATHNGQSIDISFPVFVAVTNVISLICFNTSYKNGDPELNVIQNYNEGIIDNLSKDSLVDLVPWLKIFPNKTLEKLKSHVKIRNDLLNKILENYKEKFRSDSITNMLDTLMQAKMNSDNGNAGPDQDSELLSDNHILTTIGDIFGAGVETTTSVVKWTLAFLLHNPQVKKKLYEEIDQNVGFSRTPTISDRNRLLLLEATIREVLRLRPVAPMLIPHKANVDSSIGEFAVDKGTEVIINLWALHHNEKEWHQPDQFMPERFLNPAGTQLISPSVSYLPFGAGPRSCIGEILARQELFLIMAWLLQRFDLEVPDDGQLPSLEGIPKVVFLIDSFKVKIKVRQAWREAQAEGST

[3] = target: T1, Steroid 17-alpha-hydroxylase/17,20 lyase; assay: Inhibition of CYP17 in human testicular microsomes using 17alpha-hydroxypregnenolone as substrate assessed as decrease in DHEA levels at 10 nM after 90 mins by ELISA relative to control; set-up: species or system Testis; conditions: 1.5 h
[4] = Half life in rat liver microsomes at 1 uM by LC-MS/MS analysis
[5] = target: T2, CYP21 (steroid 21-hydroxylase) (Homo sapiens, UniProt P08686); assay: Inhibition of human CYP21 transfected in HEK293 cells assessed as decrease in conversion of progesterone to 11-deoxycorticosterone at 100 nM preincubated for 5 hrs followed by progesterone addition measured after 20 hrs by ELISA relative to control; format: cell-based; conditions: HEK293 cells transfected with human CYP21, probe progesterone
T2 sequence (P08686 whole entry): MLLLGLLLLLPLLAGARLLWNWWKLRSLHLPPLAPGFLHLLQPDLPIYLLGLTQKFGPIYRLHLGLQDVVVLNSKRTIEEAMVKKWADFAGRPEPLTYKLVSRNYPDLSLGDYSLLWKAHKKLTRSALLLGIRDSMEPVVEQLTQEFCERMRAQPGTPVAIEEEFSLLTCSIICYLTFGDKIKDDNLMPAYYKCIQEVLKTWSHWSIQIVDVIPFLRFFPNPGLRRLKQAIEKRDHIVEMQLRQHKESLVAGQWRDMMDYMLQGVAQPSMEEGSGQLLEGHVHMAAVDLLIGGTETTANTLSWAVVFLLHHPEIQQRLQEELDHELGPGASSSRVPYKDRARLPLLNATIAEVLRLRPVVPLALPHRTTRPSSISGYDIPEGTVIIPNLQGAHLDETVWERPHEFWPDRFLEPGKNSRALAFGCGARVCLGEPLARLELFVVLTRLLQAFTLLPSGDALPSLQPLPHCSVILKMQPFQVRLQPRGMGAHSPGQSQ

[6] = target: T3, CYP11B (Rattus norvegicus, UniProt P15393+P30099); assay: Inhibition of Sprague-Dawley rat adrenal mitochondrial CYP11B assessed as decrease in conversion of 11-deoxycortisol to cortisol at 100 nM incubated for 60 mins by ELISA relative to control; format: protein assay; conditions: adrenal mitochondria, probe 11-deoxycortisol
T3 sequence (P30099 whole entry): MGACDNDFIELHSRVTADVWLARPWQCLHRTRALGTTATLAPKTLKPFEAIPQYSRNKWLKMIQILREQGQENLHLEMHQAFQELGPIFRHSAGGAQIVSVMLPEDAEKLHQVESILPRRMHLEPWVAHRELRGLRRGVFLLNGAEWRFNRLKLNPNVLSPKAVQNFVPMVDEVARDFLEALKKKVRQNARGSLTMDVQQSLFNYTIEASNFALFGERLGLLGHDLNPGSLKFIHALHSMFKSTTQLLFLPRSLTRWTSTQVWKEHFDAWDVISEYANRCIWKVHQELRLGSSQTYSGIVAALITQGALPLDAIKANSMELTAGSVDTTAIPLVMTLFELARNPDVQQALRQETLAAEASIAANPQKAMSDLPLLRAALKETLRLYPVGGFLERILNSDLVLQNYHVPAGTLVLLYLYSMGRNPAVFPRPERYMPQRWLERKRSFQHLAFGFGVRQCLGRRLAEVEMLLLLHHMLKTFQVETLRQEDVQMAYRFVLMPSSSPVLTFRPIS
T3 sequence (P15393 whole entry): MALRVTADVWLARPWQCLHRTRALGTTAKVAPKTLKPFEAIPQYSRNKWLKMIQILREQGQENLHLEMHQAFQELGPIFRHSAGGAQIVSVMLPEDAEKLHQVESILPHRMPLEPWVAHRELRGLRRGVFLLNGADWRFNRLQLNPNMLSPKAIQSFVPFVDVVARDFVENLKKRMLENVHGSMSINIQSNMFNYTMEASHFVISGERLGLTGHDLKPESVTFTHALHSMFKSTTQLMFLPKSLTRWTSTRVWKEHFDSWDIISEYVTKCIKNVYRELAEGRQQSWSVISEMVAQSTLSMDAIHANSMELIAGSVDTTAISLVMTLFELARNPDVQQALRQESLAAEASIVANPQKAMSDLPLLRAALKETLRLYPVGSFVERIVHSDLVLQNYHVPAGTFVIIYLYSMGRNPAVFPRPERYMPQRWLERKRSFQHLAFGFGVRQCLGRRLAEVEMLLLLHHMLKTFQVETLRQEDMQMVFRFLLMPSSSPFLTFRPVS

[7] = target: T1, Steroid 17-alpha-hydroxylase/17,20 lyase; assay: Inhibition of human C17,20-lyase in human testis microsomes at 10 nM using 17alpha-hydroxypregnenolone/[21-3H]-17alpha-hydroxypregnenolone as substrate after 30 mins by scintillation counting method relative to control; conditions: 0.5 h
[8] = target: T2, CYP21 (steroid 21-hydroxylase); assay: Inhibition of human CYP21 transfected in HEK293 cells assessed as decrease in conversion of progesterone to 11-deoxycorticosterone preincubated for 5 hrs followed by progesterone addition measured after 20 hrs by ELISA; format: cell-based; set-up: concentration or dose not given beside the values; conditions: HEK293 cells transfected with human CYP21, probe progesterone
[9] = target: T1, Steroid 17-alpha-hydroxylase/17,20 lyase; assay: Inhibition of CYP17 in human H295R cells assessed as decrease in testosterone levels after 24 hrs by ELISA; format: cell-based
[10] = target: T1, Steroid 17-alpha-hydroxylase/17,20 lyase; assay: Inhibition of CYP17 in human testicular microsomes using 17alpha-hydroxypregnenolone as substrate assessed as decrease in DHEA levels at 1 nM after 90 mins by ELISA relative to control; set-up: species or system Testis

SMILES | half-life at 1 µM [1] [min] | IC50 [2] [µM] | inhibition at 0.01 µM [3] [%] | half-life at 1 µM [4] [min] | inhibition at 20 h, 0.1 µM [5] [%] | inhibition at 1 h, 0.1 µM [6] [%] | inhibition at 0.01 µM [7] [%] | inhibition at 20 h [8] [%] | IC50 [9] [µM] | IC50 [10] [µM]
C[C@]12CC[C@H]3[C@@H](CCC4=CC(=O)CC[C@@]43C)C1=CC=C2n1ccnc1 | ≥ 50 | ≤ 0.011 | ≥ 80 | 10 to 60 | < 30 | ≥ 50 |  |  |  | 
C[C@]12CCNC(=O)C=C1CC[C@@H]1[C@@H]2CC[C@]2(C)C(n3cncn3)=CC[C@@H]12 | 1 to 10 | ≤ 0.011 | ≥ 80 | 1 to 10 | ≥ 30 | < 32 |  |  |  | 
C[C@]12CCC(=O)OC[C@@H]1CC[C@@H]1[C@@H]2CC[C@]2(C)C(c3cccnc3)=CC[C@@H]12 | 1 to 50 | ≤ 0.011 |  | 10 to 60 |  |  | ≥ 38 |  |  | 
C[C@]12CC[C@H]3[C@@H](CC[C@H]4CC(=O)CC[C@@]43C)C1=CC=C2n1ccnc1 | 1 to 50 | ≤ 0.011 | ≥ 80 |  | < 30 | < 32 |  |  |  | 
C[C@]12CC[C@H]3[C@@H](CCN4C(=O)CC=CC[C@]34C)[C@@H]1CC=C2c1cccnc1 | 1 to 10 |  |  | 1 to 10 |  |  | ≥ 38 |  |  | 
C[C@]12CC[C@H]3[C@@H](CCN4C(=O)C=CCC[C@]34C)[C@@H]1CC=C2c1cccnc1 |  |  |  |  |  |  | ≥ 38 |  |  | 
C[C@]12CC[C@H]3[C@@H](CC[C@H]4CC(=O)CC[C@@]43C)C1=CC=C2c1cccnc1 | 1 to 50 | ≤ 0.011 | ≥ 80 |  | ≥ 30 | ≥ 50 |  |  |  | 
CCNC(=O)N[C@@H]1CC[C@@]2(C)C(=CC[C@@H]3[C@@H]2CC[C@]2(C)C(n4ccnc4)=CC[C@@H]32)C1 | 1 to 50 |  |  |  | < 30 | ≥ 50 |  | ≥ 50 |  | 
COc1cncc(C2=CC[C@H]3[C@@H]4CC[C@H]5COC(=O)CC[C@]5(C)[C@H]4CC[C@]23C)c1 |  |  |  |  |  |  | ≥ 38 |  |  | 
C[C@]12CC(O)C[C@@H]1CC[C@@H]1[C@@H]2CC[C@]2(C)C(n3ccnc3)=CC[C@@H]12 (some centres undefined) | 10 to 60 | ≤ 0.011 | ≥ 80 | 10 to 60 | ≥ 30 | ≥ 50 |  |  | ≤ 0.015 | 
CO/N=C1/C=C2CC[C@H]3C4=CC=C(c5cccnc5)[C@@]4(C)CC[C@@H]3[C@@]2(C)CC1 | ≥ 50 | ≤ 0.011 |  |  | ≥ 30 |  |  | 10 to 50 |  | > 0.1
CN1CC[C@@]2(C)C(=CC1=O)CC[C@H]1C3=CC=C(c4cccnc4)[C@@]3(C)CC[C@@H]12 | 1 to 50 | ≤ 0.011 | ≥ 80 |  | ≥ 30 | < 32 |  |  |  | 
C[C@]12CCOC(=O)C[C@@H]1CC[C@@H]1[C@@H]2CC[C@]2(C)C(c3cccnc3)=CC[C@@H]12 | 1 to 50 | ≤ 0.011 |  | 10 to 60 |  |  | ≥ 38 |  |  | 
CCOc1cncc(C2=CC[C@H]3[C@@H]4CC[C@H]5COC(=O)CC[C@]5(C)[C@H]4CC[C@]23C)c1 |  |  |  |  |  |  | 3 to 38 |  |  | 
C[C@]12CC[C@H]3[C@@H](CC=C4C[C@@H](O)CC[C@@]43C)C1=CC=C2c1cccnc1 | 1 to 50 | ≤ 0.011 | 50 to 80 | 10 to 60 | < 30 | < 32 |  |  | ≤ 0.015 | 
